Experimental data taken from patent publication US20120078527A1, “KIT AND METHOD FOR PREDICTING SENSITIVITY OF GASTRIC CANCER PATIENT TO ANTI-CANCER AGENT” (SAMSUNG ELECTRONICS CO., LTD., priority 2010, published 2012).

Tested on: advanced (terminal) gastric cancer patients
Test: Change in tumor size after cisplatin-based chemotherapy in gastric cancer patients
Assay type: in vivo, human
Settings: population of 151 advanced (terminal) gastric cancer patients; cisplatin-based chemotherapy per NCCN guidelines after palliative surgical resection; judged by changes in tumor size
Method: A population of 151 advanced (terminal) gastric cancer patients who were treated with cisplatin-based chemotherapy (in Samsung Medical Center, Seoul, Korea) after palliative surgical resection were selected to test for sensitivity to the anti-cancer agent. That is, the anti-cancer agent (cisplatin) was administered to the patients according to National Comprehensive Cancer Network (NCCN) guidelines, and changes in tumor size after the administration of the anti-cancer agent were measured to determine whether the anti-cancer therapy was effective. Then, the patients were grouped into two groups: one group of 103 patients for which the anti-cancer therapy was effective (responders), and the other group of 48 patients for which the anti-cancer therapy was not effective (nonresponders). In addition, to identify SNPs associated with response or nonresponse to the anti-cancer agent, DNA of each of the patients was extracted from gastric tumor tissue removed from the patient using QIAamp DNA Mini and blood Mini kits.

**Q.** For `N.N.[Cl][Pt][Cl]` [cisplatin], which “patients for which the anti-cancer therapy was effective (responders)” value is on record?
**A.** 103 patients

**Q.** And the “patients for which the anti-cancer therapy was not effective (nonresponders)” value?
**A.** 48 patients
